Legend:
[1] = system: human aortic smooth muscle cells; assay: Cholesterol efflux ([3H]cholesterol); type: cell-based; settings: 24 h with fractions after [3H]cholesterol labelling
[2] = system: human aortic smooth muscle cells; assay: Cholesterol biosynthesis ([14C]acetate incorporation) in cultured cells with ox-LDL; type: cell-based; settings: for hypocholesterolemic activity: purified compounds isolated from EO, cell-based bioassay
Method: Cells were incubated with aqueous extracts of O. sanctum (JH-1), EO (JH-2), W. somnifera (JH-3) and EuMil (JH-4) at concentration 500 μg/ml in medium supplemented with 100 μg/ml oxidized LDL. Cells incubated with 100 μg/ml ox-LDL served as a control. [14C] acetate (2 μCi/ml) was added and incorporation of radioactivity into cholesterol and cholesteryl esters was measured after 24 h of incubation in standard cell culture conditions. Lovastatin (10 μM) plus ox-LDL served as a positive control.
H-ASMC (×10^5) were seeded in plastic 6-well trays and grown in smooth muscle cells medium-2 (Cambrex). Incubation was pursued in a water-jacketed incubator with 5% CO2 and 95% air. After the cells reached confluence medium was replaced by plain serum-free medium. Following incubation for 24 h fresh medium, 100 μg/ml ox-LDL and various herbal fractions solubilized in 12.5% DMSO were added. Cells that were incubated with lovastatin (10 μM) served as a positive control in all experiments.
Cells were incubated with and without ox-LDL and EuMil/ingredients and [14C] acetate ([…], 24 h). Next, medium was removed; the monolayers were washed three times with PBS. Cells were extracted with hexane:isopropanol (3:2 by volume, 2×3 ml) at room temperature. The extracts were pooled in glass tubes and total lipid extract dried in nitrogen atmosphere. 1N NaOH (1 ml) was added to each tube to solubilize proteins and the incubated overnight in open air. Next, water (2 ml) was added to the air dried tubes, the contents were mixed and utilized for protein measurement using BCA protein assay kit (Pierce, Rockford, Ill.)
The total lipid extracts were dried in stream of nitrogen, re-suspended in chloroform-methanol (2:1 by volume) and applied on a HPTLC silica gel plate. Standard solutions of cholesterol, monolein, diolein, triolein, fatty acid and cholesteryl oleate (50 μg each) also were applied to the plate. The plates were developed in heptane-ether-acetic acid (85:15:1 by volume). Following development, the plates were dried in air and exposed to an X-ray film for 2-3 days at […]. After the films were developed, the HPTLC plates were immersed in iodine vapors to identify the migration of individual neutral lipid molecular species. Gel areas, corresponding to cholesterol were scraped and radioactivity was measured using Beckman liquid scintillation spectrometer. The data was expressed as counts per mg protein. The incorporation of radioactivity in cells incubated with oxidized LDL was considered as 100% (control). All experimental values in cells treated with EuMil/ingredients plus oxidized LDL were expressed as a percentage of the control. All assays were conducted in triplicate.

[3] = system: human aortic smooth muscle cells; assay: Cholesterol uptake ([3H]cholesterol); type: cell-based; settings: [3H]cholesterol 5 μCi/ml, serum-free medium, 24 h
Method: FIG. 11 is a graph showing the effect of active compounds from EO on uptake of cholesterol in human aortic smooth muscle cells. Confluent culture of cells grown in 96 well plates was incubated in serum-free medium with [3H]cholesterol (5 μCi/ml) with and without active fractions. After 24 h the uptake of cholesterol was measured by scintillation spectrometry.
Confluent culture of human aortic smooth muscle cells were pre-incubated in serum-free DMEM for 24 h. Next, fresh medium and [3H]cholesterol (5 μCi/ml) plus various herbal compounds were added. Following incubation for 24 h and 48 h, [3H]cholesterol taken up by cell was measured by solubilization in 1 M NaOH and radioactivity measured.

[4] = Behaviour of mucic acid gallates in aqueous solution; type: physicochemical; settings: as previously reported [22]
Description: It should be noted that the mucic acid gallates derivatives 7 and 9 equilibrate in aqueous solutions as previously reported, while 1-methyl mucate-2-gallate (8) is not an artifact of the isolation procedure as it could be isolated when only ethanol, water and acetonitrile were used.

[5] = system: human aortic smooth muscle cells; assay: Measurement of the level (mass) of cholesterol in cells; type: cell-based; settings: active fractions 5 μg/ml
Method: FIG. 9 is a graph showing the effect of active fractions from EO on cholesterol level in human ASMC. Cells were incubated with active fractions (5 μg/ml) and cholesterol mass was determined.
Following treatment cells were extracted with hexane-isopropanol 3:2 by volume as described above. The pooled extracts were dried in a stream of nitrogen and subjected to measurement of total cholesterol mass using a cholesterol kit (WAKO chemicals, VA) with cholesterol as the standard. The data was expressed as μg cholesterol per mg protein.

F344 rats = settings: both sexes, 5% GA in diet, week 1 to end of 13 weeks; cited from earlier work
H-ASMC = assay: Cell proliferation ([3H]thymidine incorporation); type: cell-based, human
Method: Following incubation for 18 h with and without ox-LDL and EuMil/ingredients and lovastatin [3H]thymidine ([…]) was added in 96 well dishes and incubation continued for 6 h at 37° C. Next, the cells were washed and the incorporation of [3H]thymidine into DNA was measured employing scintillation spectrometry. The data was calculated as dpm/well. All experimental values were expressed as a percentage of the control values (cells incubated with ox-LDL alone).

[6] = 10 μM plus 100 μg/ml ox-LDL, 24 h, ox-LDL alone = control

In the case of `COC(=O)c1cc(O)c(O)c(O)c1` [Compound 2a, methyl gallate], the “efflux of cholesterol from cultured H-ASMC” value (from here on “efflux of cholesterol”) [1] is reported as “very effective”, the hypocholesterolemic activity [2] is reported as “hypocholesterolemic active compounds” and the “inhibition of cholesterol uptake in H-ASMC” value [3] is reported as “markedly inhibit”.
For mucic acid-2-gallate [Compound 7], the “stability in aqueous solutions” value [4] was “equilibrate”, the “cellular mass / level of cholesterol in ASMC” value (“cellular mass / level” below) [5] was “effective in decreasing cholesterol level” and the hypocholesterolemic activity [2] was “hypocholesterolemic active compounds”.
In the case of glucose-6-gallate (GG6) [Compound 5], the “cellular mass / level” value [5] is reported as “effective in decreasing cholesterol level” and the hypocholesterolemic activity [2] is reported as “hypocholesterolemic active compounds”.
With `O=C(O)c1cc(O)c(O)c(O)c1` [Compound 1, gallic acid] the “efflux of cholesterol” value [1] was “effective”, the “efflux of cholesterol” value ([1]; listed as gallate) was “very effective” and the hypocholesterolemic activity [2] was “hypocholesterolemic active compounds”. For the same compound, the “body weight gain versus untreated controls” value (F344 rats) was “significantly lower”.
For `COC(=O)C(OC(=O)c1cc(O)c(O)c(O)c1)C(O)C(O)C(O)C(=O)O` (centres unmarked) [Compound 8, 1-methyl mucate-2-gallate], the “cellular mass / level” value [5] was “effective in decreasing cholesterol level” and the hypocholesterolemic activity [2] was “hypocholesterolemic active compounds”.
With `CC[C@H](C)C(=O)O[C@H]1C[C@@H](C)C=C2C=C[C@H](C)[C@H](CC[C@@H]3C[C@@H](O)CC(=O)O3)[C@H]21` [Lovastatin, lovastatin, reference compound] the “effect on cell proliferation” value (H-ASMC) was “did not appear to inhibit”, the “biosynthesis of cholesterol compared to control” value [2, 6] was about 20% and the “biosynthesis of cholesteryl esters compared to control” value [2, 6] was about 50%. The “inhibition of cholesterol uptake in H-ASMC” value [3] was “not effective”.
With `O=C(OCC(O)CO)c1cc(O)c(O)c(O)c1` (centres unmarked) [Compound 3, glycerol-1-gallate] the hypocholesterolemic activity [2] was “hypocholesterolemic active compounds”.
In the case of `O=C(O[C@@H]1O[C@H](CO)[C@@H](O)[C@H](O)[C@H]1O)c1cc(O)c(O)c(O)c1` [Compound 4, glucose-1-gallate (GG1)], the hypocholesterolemic activity [2] is reported as “hypocholesterolemic active compounds”.
In the case of `O=C(OC(C(=O)O)C1OC(=O)C(O)C1O)c1cc(O)c(O)c(O)c1` (centres unmarked) [Compound 9, mucic acid 1,4-lactone 5-gallate], the “stability in aqueous solutions” value [4] is reported as “equilibrate”, the “cellular mass / level” value [5] is reported as “effective in decreasing cholesterol level” and the hypocholesterolemic activity [2] is reported as “hypocholesterolemic active compounds”.
For `O=C(OC[C@H]1OC(OC(=O)c2cc(O)c(O)c(O)c2)[C@H](O)[C@@H](O)[C@@H]1O)c1cc(O)c(O)c(O)c1` (some centres unmarked) [Compound 6, glucose-1,6-digallate (DGG16)], the “cellular mass / level” value [5] was “effective in decreasing cholesterol level” and the hypocholesterolemic activity [2] was “hypocholesterolemic active compounds”.
In the case of `CCOC(=O)c1cc(O)c(O)c(O)c1` [Compound 2b, ethyl gallate], the hypocholesterolemic activity [2] is reported as “hypocholesterolemic active compounds”.
